# Data as given in patent EP4660185A1, “NAV1.7- AND/OR NAV1.8-INHIBITING AMIDES, PROCESSES FOR THE PREPARATION THEREOF, COMPOSITIONS, USES, METHODS FOR TREATMENT USING SAME, AND KITS” (Eurofarma Laboratórios S.A., priority 2023, dated 2024).
# Assays:
# [1] = target: T1, human sodium channels Nav 1.7 (Homo sapiens, UniProt Q15858); assay: Automated whole-cell voltage-clamp (ScreenPatch 384P) sodium current block, Nav 1.7; format: cell-based; conditions: CHO cells stably expressing human Nav 1.7; holding -100 mV, inactivation step -40 mV for 8 seconds, test step 0 mV (TP1A); exposure at least five minutes, room temperature; mean where tested in two or more assays; read-out: Nav1.7 IC50
# T1 construct: expressed in transfected cells
# T1 sequence (Q15858 whole entry): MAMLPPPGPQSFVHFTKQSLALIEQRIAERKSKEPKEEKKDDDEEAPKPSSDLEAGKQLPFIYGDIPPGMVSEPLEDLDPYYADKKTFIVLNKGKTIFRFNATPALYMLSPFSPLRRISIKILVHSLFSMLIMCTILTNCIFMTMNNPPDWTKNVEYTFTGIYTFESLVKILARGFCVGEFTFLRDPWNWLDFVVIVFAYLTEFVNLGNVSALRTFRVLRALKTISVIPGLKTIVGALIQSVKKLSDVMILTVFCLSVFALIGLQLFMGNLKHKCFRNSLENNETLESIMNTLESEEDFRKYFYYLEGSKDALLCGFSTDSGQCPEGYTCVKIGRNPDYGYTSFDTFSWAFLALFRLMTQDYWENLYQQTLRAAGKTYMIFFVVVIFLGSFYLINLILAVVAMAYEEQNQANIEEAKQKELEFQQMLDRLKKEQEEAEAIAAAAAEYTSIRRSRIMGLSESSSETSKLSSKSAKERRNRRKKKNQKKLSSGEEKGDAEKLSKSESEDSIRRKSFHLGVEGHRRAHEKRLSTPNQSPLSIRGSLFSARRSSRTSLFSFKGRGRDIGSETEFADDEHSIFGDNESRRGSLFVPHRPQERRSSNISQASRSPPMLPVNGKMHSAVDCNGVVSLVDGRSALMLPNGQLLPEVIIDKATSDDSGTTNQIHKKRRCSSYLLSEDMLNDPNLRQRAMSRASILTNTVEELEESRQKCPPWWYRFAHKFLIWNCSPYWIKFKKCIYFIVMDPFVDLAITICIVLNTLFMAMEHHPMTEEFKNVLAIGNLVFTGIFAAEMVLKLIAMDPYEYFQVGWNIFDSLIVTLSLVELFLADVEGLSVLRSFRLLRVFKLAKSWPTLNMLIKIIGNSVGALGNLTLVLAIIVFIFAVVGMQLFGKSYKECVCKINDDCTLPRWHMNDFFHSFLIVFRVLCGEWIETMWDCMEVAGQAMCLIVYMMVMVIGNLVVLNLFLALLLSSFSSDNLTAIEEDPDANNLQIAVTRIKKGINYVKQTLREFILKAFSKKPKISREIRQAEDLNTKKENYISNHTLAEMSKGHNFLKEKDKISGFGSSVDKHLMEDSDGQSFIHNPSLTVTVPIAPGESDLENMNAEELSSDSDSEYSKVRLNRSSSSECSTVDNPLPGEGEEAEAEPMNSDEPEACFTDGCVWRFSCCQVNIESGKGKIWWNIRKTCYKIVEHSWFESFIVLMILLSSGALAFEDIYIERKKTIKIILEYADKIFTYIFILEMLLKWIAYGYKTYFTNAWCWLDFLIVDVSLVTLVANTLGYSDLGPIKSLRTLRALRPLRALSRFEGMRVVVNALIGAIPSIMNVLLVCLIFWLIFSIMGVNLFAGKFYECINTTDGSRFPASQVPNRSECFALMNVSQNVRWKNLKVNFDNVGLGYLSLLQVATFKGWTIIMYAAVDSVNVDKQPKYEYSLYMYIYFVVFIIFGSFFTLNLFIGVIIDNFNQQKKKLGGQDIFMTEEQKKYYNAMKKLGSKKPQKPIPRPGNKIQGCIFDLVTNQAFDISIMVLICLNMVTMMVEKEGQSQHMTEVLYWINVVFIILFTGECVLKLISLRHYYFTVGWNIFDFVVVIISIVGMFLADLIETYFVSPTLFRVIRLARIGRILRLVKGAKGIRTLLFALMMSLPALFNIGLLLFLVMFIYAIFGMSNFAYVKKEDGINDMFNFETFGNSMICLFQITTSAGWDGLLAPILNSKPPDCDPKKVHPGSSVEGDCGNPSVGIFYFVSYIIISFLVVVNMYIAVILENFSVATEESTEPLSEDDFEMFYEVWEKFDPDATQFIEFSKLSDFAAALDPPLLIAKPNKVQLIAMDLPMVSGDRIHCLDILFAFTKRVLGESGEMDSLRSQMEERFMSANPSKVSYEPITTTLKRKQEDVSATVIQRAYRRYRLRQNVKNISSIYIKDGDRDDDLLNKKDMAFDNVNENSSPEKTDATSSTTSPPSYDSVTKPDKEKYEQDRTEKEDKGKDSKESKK
# Procedure: (§1) Biological assays were performed on Chinese hamster ovary (CHO) cells that express human sodium channels Nav 1.8 or Nav 1.7 in a stable manner.
# (§2) The experimental protocol voltage-clamp using the whole cell configuration was established on the automated ScreenPatch® 384P platform (SP384PE, Nanion Technologies, Livingston, NJ) and the results were recorded with a Nanion 384-well Patch Clamp chip (NPC) (Nanion Technologies, Livingston, NJ).
# (§3) Compounds of Formula Ia and Formula Ib were diluted in eight concentrations in the extracellular solution composed of saline solution, buffered with HEPES (mM): NaCl, 137; KCl, 4; CaCl2, 3,8; MgCl2, 1; HEPES, 10; Glucose, 10; pH 7.4. The […], 50; CsF, 90; MgCl2, 5; EGTA, 5; HEPES, 10; pH 7.2. The duration of exposure of each compound with cells expressing Nav 1.7 or Nav 1.8 was at least five minutes, and the assays were performed at room temperature.
# (§4) The measurements of the sodium currents of Nav 1.8 and Nav 1.7 were obtained using the voltage protocol described below: A holding voltage of -100 mV was established followed by an inactivation voltage step at -40 mV for 8 seconds, followed by a step of -100 mV for 20 ms, followed by a 20 ms step for 10 mV for Nav 1.8 or 0 mV for Nav 1.7 (TP1A) before returning to the holding voltage of -100 mV.
# (§5) The protocol was repeated at a frequency of 0.05 Hz and the amplitude of the current was quantified throughout the recording of the TP1A phase. The variation in the amplitude of the peak current was evaluated according to the formula described below, after exposing the cells expressing the channels to each concentration of the different compounds: % Block = (1−(ITP1A,molecule/ITP1A,basal)×100%, [formula] wherein ITP1A,basal and ITP1A,molecule represent the peaks of sodium current input into TP1A before exposure to the compound and in the presence of the compound, respectively.
# (§6) Data were obtained by nonlinear regression (nonlinear least squares) with XLfit for Excel (Microsoft, Redmond, WA).
# (§7) The compounds were tested in at least one assay to obtain the value of CI50. For compounds that were tested in two or more assays, the results are described as the mean of the CI50 values.
# [2] = target: T2, human sodium channels Nav 1.8 (Homo sapiens, UniProt Q9Y5Y9); assay: Automated whole-cell voltage-clamp (ScreenPatch 384P) sodium current block, Nav 1.8; format: cell-based; conditions: CHO cells stably expressing human Nav 1.8; holding -100 mV, inactivation step -40 mV for 8 seconds, test step 10 mV (TP1A); exposure at least five minutes, room temperature; mean where tested in two or more assays; read-out: Nav1.8 IC50
# T2 construct: expressed in transfected cells
# T2 sequence (Q9Y5Y9 whole entry): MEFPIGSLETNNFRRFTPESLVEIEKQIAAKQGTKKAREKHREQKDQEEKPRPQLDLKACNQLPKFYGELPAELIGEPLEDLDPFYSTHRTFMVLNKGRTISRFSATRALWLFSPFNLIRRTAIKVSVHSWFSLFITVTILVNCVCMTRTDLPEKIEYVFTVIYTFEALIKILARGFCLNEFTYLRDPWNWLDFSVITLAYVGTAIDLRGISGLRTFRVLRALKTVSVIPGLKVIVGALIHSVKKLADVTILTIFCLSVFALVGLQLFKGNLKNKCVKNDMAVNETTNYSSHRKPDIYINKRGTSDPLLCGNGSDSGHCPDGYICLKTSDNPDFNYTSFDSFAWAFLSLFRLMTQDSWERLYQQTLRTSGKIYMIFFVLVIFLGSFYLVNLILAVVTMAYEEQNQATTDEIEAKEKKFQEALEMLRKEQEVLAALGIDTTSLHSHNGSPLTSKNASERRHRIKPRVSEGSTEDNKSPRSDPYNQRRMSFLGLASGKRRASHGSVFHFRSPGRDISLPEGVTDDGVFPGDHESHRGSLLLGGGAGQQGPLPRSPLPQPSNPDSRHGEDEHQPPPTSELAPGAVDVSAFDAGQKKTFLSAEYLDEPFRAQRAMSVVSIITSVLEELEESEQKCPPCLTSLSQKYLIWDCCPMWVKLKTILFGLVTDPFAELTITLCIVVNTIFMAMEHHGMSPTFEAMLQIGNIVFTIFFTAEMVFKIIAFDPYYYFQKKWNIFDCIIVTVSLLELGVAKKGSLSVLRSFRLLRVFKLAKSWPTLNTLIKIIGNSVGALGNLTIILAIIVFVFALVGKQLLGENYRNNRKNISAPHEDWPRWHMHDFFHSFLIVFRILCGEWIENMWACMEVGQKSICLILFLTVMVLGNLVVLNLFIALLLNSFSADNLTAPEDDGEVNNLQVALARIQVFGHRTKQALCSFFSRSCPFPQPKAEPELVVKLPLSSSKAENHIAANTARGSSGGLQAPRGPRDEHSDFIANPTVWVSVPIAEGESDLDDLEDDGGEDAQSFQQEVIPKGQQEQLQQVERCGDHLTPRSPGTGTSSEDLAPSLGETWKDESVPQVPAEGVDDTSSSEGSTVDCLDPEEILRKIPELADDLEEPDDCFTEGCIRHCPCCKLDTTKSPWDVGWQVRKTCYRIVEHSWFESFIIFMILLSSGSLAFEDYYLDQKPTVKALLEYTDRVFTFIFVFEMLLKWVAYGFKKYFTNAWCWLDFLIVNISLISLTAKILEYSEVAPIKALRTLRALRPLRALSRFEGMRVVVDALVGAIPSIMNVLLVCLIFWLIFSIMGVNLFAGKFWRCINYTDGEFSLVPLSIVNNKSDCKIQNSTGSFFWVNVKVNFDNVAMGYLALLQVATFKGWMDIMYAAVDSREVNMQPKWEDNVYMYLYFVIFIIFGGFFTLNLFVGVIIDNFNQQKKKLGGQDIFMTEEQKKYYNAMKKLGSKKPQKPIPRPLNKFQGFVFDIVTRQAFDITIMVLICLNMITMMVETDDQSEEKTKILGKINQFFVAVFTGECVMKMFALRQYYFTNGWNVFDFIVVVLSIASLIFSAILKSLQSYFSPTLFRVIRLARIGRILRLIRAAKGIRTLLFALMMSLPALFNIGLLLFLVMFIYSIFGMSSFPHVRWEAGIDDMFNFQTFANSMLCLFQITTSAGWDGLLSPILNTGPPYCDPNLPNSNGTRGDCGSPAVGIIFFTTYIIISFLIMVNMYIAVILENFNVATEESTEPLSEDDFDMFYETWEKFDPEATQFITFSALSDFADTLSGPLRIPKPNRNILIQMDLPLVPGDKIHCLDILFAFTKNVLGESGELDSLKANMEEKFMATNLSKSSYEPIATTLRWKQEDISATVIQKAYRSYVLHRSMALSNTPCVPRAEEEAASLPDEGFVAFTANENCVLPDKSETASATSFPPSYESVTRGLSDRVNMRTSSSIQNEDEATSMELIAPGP
# Procedure: as §1, §2, §3, §4, §5, §6, §7
SMILES,IC50 [1] [nM],IC50 [2] [nM]
CCOc1ccc(-c2cncc(C(=O)Nc3cc4c(OC)ccc(F)c4[nH]3)n2)cc1 [compound 77],> 1000,> 1000
CCOc1ccc(-c2ccnc(C(=O)NCCc3cc(OC)cnc3F)n2)cn1 [compound 115],> 1000,> 1000
CCOc1ccc(-c2nccc(C(=O)NCCc3cc(OC)cnc3F)n2)cc1 [compound 106],> 1000,> 1000
CCOc1ccc(-c2cncc(C(=O)Nc3cn4c(OC)ccc(F)c4n3)n2)cn1 [compound 68],> 1000,> 1000
CCOc1ccc(-c2cncc(C(=O)Nc3cc4c(OC)cccc4[nH]3)n2)cn1 [compound 73],> 1000,> 1000
CCOc1ccc(-c2cncc(C(=O)NCCc3cccc(C(C)O)c3)n2)cn1 (stereo not drawn) [compound 41],> 1000,> 1000
CCOc1cc(C)c(-c2cncc(C(=O)NCCc3cc(OC)cc(OC)c3)n2)cn1 [compound 30],> 1000,> 1000
COc1cnc(F)c(CCNC(=O)c2cncc(-c3ccc(OC(F)F)cc3)n2)c1 [compound 50],> 1000,> 1000
CCOc1ccc(-c2cnnc(C(=O)NCCc3cc(OC)cnc3F)c2)cn1 [compound 112],> 1000,> 1000
CCOc1ccc(-c2cncc(C(=O)NCCc3cc(OC)cc(OC)c3)n2)cn1 [compound 44],> 1000,> 1000
CCOc1ccc(-c2cncc(C(=O)NCCc3cc(OC)cc(C(C)O)c3)n2)cn1 (stereo not drawn) [compound 40],> 1000,> 1000
COc1cnc(F)c(CCNC(=O)c2cncc(-c3ccc(OC(F)F)nc3)n2)c1 [compound 51],> 1000,> 1000
CCOc1ccc(-c2cncc(C(=O)NC[C@H](N)c3cc(OC)cc(OC)c3)n2)cc1 [compound 26],> 1000,> 1000
CCOc1ccc(-c2cncc(C(=O)Nc3cc4c(F)ccc(OC)c4n3C)n2)cn1 [compound 70],> 1000,> 1000
CCOc1ccc(-c2cncc(C(=O)NCCc3cc(C(C)O)cnc3F)n2)cc1 (stereo not drawn) [compound 14],> 1000,> 1000
CCOc1ccc(-c2cc(C(=O)NCCc3cc(OC)cnc3F)cnn2)cn1 [compound 111],> 1000,> 1000
CCOc1ccc(-c2cccc(C(=O)NCCc3cc(OC)cnc3F)n2)cn1 [compound 108],> 1000,> 1000
CCOc1ccc(-c2ccnc(C(=O)NCCc3cc(OC)cnc3F)c2)cn1 [compound 114],> 1000,> 1000
CCOc1ccc(-c2cncc(C(=O)NCCc3cc(OC)cnc3F)c2)cn1 [compound 113],> 1000,> 1000
CCOc1ccc(-c2cncc(C(=O)Nc3nc4c(F)ccc(OC)c4o3)n2)cn1 [compound 65],> 1000,> 1000
CCOc1ccc(-c2cncc(C(=O)Nc3nc4c(OC)ccc(F)c4n3C)n2)cn1 [compound 66],> 1000,> 1000
CCOc1ccc(-c2cncc(C(=O)NC[C@@H](O)c3cc(OC)cc(OC)c3)n2)cc1 [compound 25],> 1000,> 1000
O=C(NCCc1ccccc1F)c1cncc(-c2ccc(OC(F)F)nc2)n1 [compound 47],> 1000,> 1000
COc1cnc(F)c(CCNC(=O)c2cncc(-c3ccc(C(C)O)nc3)n2)c1 (stereo not drawn) [compound 58],> 1000,> 1000
CCOc1ccc(-c2cccc(C(=O)NCCc3cc(OC)cnc3F)n2)cc1 [compound 103],> 1000,> 1000
CCOc1ccc(-c2cncc(C(=O)Nc3cc4c(OC)ccc(F)c4n3C)n2)cn1 [compound 75],> 1000,> 1000

# Now from value to compound:
IC50 [1] [nM],IC50 [2] [nM],SMILES
> 1000,500 to 1000,COc1cc(CCNC(=O)c2cncc(-c3ccc(OC(C)C)cc3)n2)cc(OC)c1 [compound 1]
> 1000,< 500,CCOc1ccc(-c2cncc(C(=O)NCCc3cc(OC)cc(OC)c3)n2)c(F)c1 [compound 3]
> 1000,> 1000,CCOc1ccc(-c2cncc(C(=O)Nc3nc4c(F)ccc(OC)c4[nH]3)n2)cn1 [compound 64]
> 1000,> 1000,CCOc1ccc(-c2cncc(C(=O)Nc3nc4c(F)ccc(OC)c4s3)n2)cn1 [compound 61]
500 to 1000,< 500,CCOc1ccc(-c2cncc(C(=O)NCCc3cc(OC)cc(OC)c3)n2)cc1 [compound 10]
> 1000,< 500,[2H]C([2H])([2H])Oc1cc(OC([2H])([2H])[2H])cc([C@H](O)CNC(=O)c2cncc(-c3ccc(OC(F)F)nc3)n2)c1 [compound 91]
> 1000,> 1000,CCOc1ccc(-c2cncc(C(=O)NC[C@H](O)c3cc(OC)cc(OC)c3)n2)cc1 [compound 24]
< 500,> 1000,CCOc1ccc(-c2ccnc(C(=O)NCCc3cc(OC)cnc3F)c2)cc1 [compound 105]
> 1000,> 1000,CCOc1ccc(-c2cncc(C(=O)NCCc3cc(OC)cc(OC)c3)n2)c(C)n1 [compound 31]
> 1000,500 to 1000,CCOc1ccc(-c2ccnc(C(=O)NCCc3cc(OC)cnc3F)n2)cc1 [compound 107]
500 to 1000,< 500,CCOc1ccc(-c2cncc(C(=O)NCCc3cccc(OC)c3)n2)cn1 [compound 45]
> 1000,< 500,CCOc1ccc(-c2cncc(C(=O)NCCc3cc(C(C)O)ccc3F)n2)cc1 (stereo not drawn) [compound 15]
> 1000,< 500,CCOc1ccc(-c2cncc(C(=O)Nc3cc4c(F)ccc(OC)c4[nH]3)n2)cn1 [compound 69]
500 to 1000,< 500,COc1cc(CCNC(=O)c2cncc(-c3ccc(OC(F)F)cc3)n2)cc(OC)c1 [compound 2]
500 to 1000,< 500,CCOc1ccc(-c2cncc(C(=O)NCCc3cc(OC)ccc3F)n2)cc1 [compound 17]
< 500,< 500,CCOc1ccc(-c2cncc(C(=O)NCCc3cccc(OC)c3)n2)cc1 [compound 5]
> 1000,< 500,CCOc1ccc(-c2cncc(C(=O)NCCc3cc(OC)cc(C(C)O)c3)n2)cc1 (stereo not drawn) [compound 12]
> 1000,< 500,CCOc1ccc(-c2cncc(C(=O)NCc3ccc4ccc(OC)cn34)n2)cn1 [compound 80]
> 1000,< 500,CCOc1ccc(-c2cncc(C(=O)NCCc3cc(OC)cnc3C)n2)cc1 [compound 18]
> 1000,< 500,CCOc1ccc(-c2cncc(C(=O)NCCc3cccc(C(C)O)c3)n2)cc1 (stereo not drawn) [compound 13]
> 1000,< 500,[2H]C([2H])([2H])Oc1cc(OC([2H])([2H])[2H])cc([C@H](O)CNC(=O)c2cncc(-c3ccc(OC(F)F)cc3)n2)c1 [compound 96]
< 500,< 500,CCOc1ccc(-c2cncc(C(=O)NC[C@@H](N)c3cc(OC)cc(OC)c3)n2)cc1 [compound 27]
> 1000,< 500,CCOc1ccc(-c2cncc(C(=O)N[C@H]3CCc4c(OC)ccc(F)c4C3)n2)cn1 [compound 78]
> 1000,< 500,CCOc1ccc(-c2cncc(C(=O)N[C@@H]3Cc4c(OC)cnc(F)c4C3)n2)cn1 [compound 84]
> 1000,< 500,[2H]C([2H])([2H])Oc1ccc(-c2cncc(C(=O)NCCc3ccccc3F)n2)cn1 [compound 89]
< 500,< 500,CCOc1ccc(-c2cncc(C(=O)NCCc3ccccc3F)n2)cc1 [compound 6]
> 1000,< 500,[2H]C([2H])([2H])Oc1ccc(-c2cncc(C(=O)NCCc3cc(OC)cc(OC)c3)n2)cc1 [compound 95]
> 1000,< 500,CCOc1ccc(-c2cncc(C(=O)NCCc3cc(OC)cnc3F)n2)cc1 [compound 16]
500 to 1000,< 500,COc1cc(CCNC(=O)c2cncc(-c3ccc(OC(C)C)nc3)n2)cc(OC)c1 [compound 28]
,500 to 1000,[2H]C([2H])([2H])Oc1ccc(-c2cncc(C(=O)NC[C@@H](O)c3cc(OC([2H])([2H])[2H])cc(OC([2H])([2H])[2H])c3)n2)cc1 [compound 99]
